Source: US10624968B2, “Compounds for treating cancer” (Bicycle Therapeutics Limited, priority 2017, dated 2020)
pIC50: −log10 of the molar value. Like-named read-outs stand apart in the source and are kept apart here. Non-standard residues stand in square brackets, D forms with d. Residues, ends and D or L forms follow the SMILES beside them. *: point of attachment. Dolaproine = CO[C@@H]([C@@H]1CCCN1)[C@@H](C)C(=O)O; Dil = CC[C@H](C)[C@H](NC)[C@@H](CC(=O)O)OC; X1 = C[C@@H](N*)[C@@H](O)c1ccccc1; NMeV = CN[C@H](C(=O)O)C(C)C

Tests used:
EBC-1 = experiment: cells; conditions: for pIC50: read-out: Re IC50
Excerpt: (§1) Details of the initial cell plating procedure are described in Table 3.
(§2) Data Details for Tables 5 and 6. Inhibition %=(Max−Sample value)/(Max−Min)*100.
(§3) The IC50 curves were generated by 4 Parameter Logistic Model—Sigmoidal Dose-Response Model as follows: Y=Bottom+(Top−Bottom)/(1+10^((log EC50-X)*HillSlope)).

HCC1806 = experiment: cells; conditions: for pIC50: read-out: Re IC50
Excerpt: as §1, §2, §3

HCT15 = experiment: cells; conditions: for pIC50: read-out: Re IC50
Excerpt: as §1, §2, §3

HT1080 = experiment: cells; conditions: for pIC50: read-out: Re IC50
Excerpt: as §1, §2, §3

HT29 = experiment: cells; conditions: for pIC50: read-out: Re IC50
Excerpt: as §1, §2, §3

MDA-MB-231 = experiment: cells; conditions: for pIC50: read-out: Re IC50
Excerpt: as §1, §2, §3

MOLP-8 = experiment: cells; conditions: for pIC50: read-out: Re IC50
Excerpt: as §1, §2, §3

NCI-H1975 = experiment: cells; conditions: for pIC50: read-out: Re IC50
Excerpt: as §1, §2, §3

NCI-H292 = experiment: cells; conditions: for pIC50: read-out: Re IC50
Excerpt: as §1, §2, §3

PC-3 = experiment: cells; conditions: for pIC50: read-out: Re IC50
Excerpt: as §1, §2, §3

SNU-16 = experiment: cells; conditions: for pIC50: read-out: Re IC50
Excerpt: as §1, §2, §3

HT1080 cells [1] = experiment: Cytotoxicity in HT1080 cells in presence and absence of 1 mM bacitracin (ATPlite, 24 hour exposure)
Procedure: HT1080 cells (ATCC, via LGC, BIC918) Maintained in EMEM media (Sigma M2279)+10% FBS (Sigma Code F7524)+4 mM L-Glu (Invitrogen Cat 25030-024)
I-1a and Toxins with Bacitracin—24 or 72 Hour Exposure in 96 Well Plates
DB seeded cells in normal media, 75 μL in 96 well clear plates, ˜24 hours previous.
HT1080—7.5 k cells/well: 50% confluent upon dosing.
Dilute in media 1:42.85=5 μL DMSO dilute+209 μL media=>use 15 μL per well
This gives a 5 μM top concentration for BDCs in assay
Add 10 µL of media±bacitracin (2 plates of each)−leave for 1 hr
(§4) Bacitracin=1 mM final concentration. This requires a 10 mM concentration with no DMSO.
Add 15 μL treatment per well as in Table 19, below.
Seal plates with gas permeable membrane and incubate at 37° C.
Washout HT1080 plates with 2×150 μL PBS at 24 h and add 100 μL fresh media
At t=72 h, equilibrate ATPlite reagent to room temperature. Add 10 ml buffer to each vial of lyophilized substrate. Add 100 μL reagent per well. Seal with PCR seal and cover to protect from light. Shake for 20 mins before reading luminescence

L540 cells = experiment: Cytotoxicity in L540 cells in presence and absence of 1 mM bacitracin (ATPlite, 72 hour exposure); assay type: cell-based
Procedure: L540 cells (DSMZ # ACC72, BIC5121), maintained in RPMI-1640 medium (Sigma # R8758)+20% heat-inactivated serum
L540—20 k cells/well: 40% confluent upon dosing.
as §4
Add 100 μL reagent per well. […] Shake for 20 mins before reading luminescence

HT1080 cells [2] = experiment: HT1080 cytotoxicity (ATPLite) in presence or absence of excess binding or non-binding peptide; assay type: cell-based; conditions: for pIC50: mean ± standard deviation
Procedure: The target dependence of cytotoxicity of I-1a in cell lines expressing or lacking MT1-MMP was assessed by measuring ATP levels in an endpoint assay after 24 hours exposure to toxin, in the presence or absence of an excess of binding peptide or non-binding control peptide.
HT1080 cells were seeded in 96 well plates (75 μL/well) and incubated overnight at 37° C.+5% CO2. The next day, peptides were prepared in buffer from a DMSO stock. 10 μL of buffer or peptide was added to the cells and incubated for 1 hour. Toxins were diluted in cell culture media and 15 μL/well was added to the cells (<0.5% final DMSO). Cells were approximately 30-50% confluent upon dosing. Plates were sealed with gas permeable seals and incubated for 24 hours at 37° C.+5% CO2. After 24 hours, media was removed, cells were washed with PBS and 100 μL fresh media was added per well. Cells were incubated for a further 48 hours at 37° C.+5% CO2.
ATPLite reagent (Perkin Elmer) was equilibrated to room temperate and reconstituted in buffer as per the manufacturer's instructions. 100 μL reagent was added per well. Plates were sealed and shaken gently for 20 minutes to ensure complete cell lysis before luminescence was read using a BMG Pherastar. […] Data was analyzed using GraphPad Prism. Non-linear regression fit was used to calculate an IC50 for each toxic agent: Y=Bottom+(Top−Bottom)/(1+10^((Log IC50-X)*HillSlope)).

11 tumor cell lines = experiment: 11 cancer cell line panel cytotoxicity, statements on the whole panel; conditions: 72 h, read-out: IC50 on all 11 tumor cell lines
Excerpt: as §1, §2, §3

## CC[C@H](C)[C@@H]([C@@H](CC(=O)N1CCC[C@H]1[C@H](OC)[C@@H](C)C(=O)N[C@H](C)[C@@H](O)c1ccccc1)OC)N(C)C(=O)[C@@H](NC(=O)[C@@H](NC)C(C)C)C(C)C [MMAE, monomethyl auristatin E] (H-[NMeV]V[Dil][Dolaproine]-X1)
EBC-1; EBC-1, 72 hours
  Top inhibition%: 67%
  pIC50: 9.46
HCC1806; HCC1806, 72 hours
  Top inhibition%: 91%
  pIC50: 9.59
HCT15; HCT15, 72 hours
  Top inhibition%: 100%
  pIC50: 7.67
HT1080; HT1080, 72 hours
  Top inhibition%: 97%
  pIC50: 9.17
HT29; HT29, 72 hours
  Top inhibition%: 81%
  pIC50: 9.38
MDA-MB-231; MDA-MB-231, 72 hours
  Top inhibition%: 61%
  pIC50: 9.21
MOLP-8; MOLP-8, 72 hours
  Top inhibition%: 93%
  pIC50: 9.19
NCI-H1975; NCI-H1975, 72 hours
  Top inhibition%: 65%
  pIC50: 9.42
NCI-H292; NCI-H292, 72 hours
  Top inhibition%: 86%
  pIC50: 9.47
PC-3; PC-3, 72 hours
  Top inhibition%: 58%
  pIC50: 9.07
SNU-16; SNU-16, 72 hours
  Top inhibition%: 99%
  pIC50: 9.74
HT1080 cells [1]; read-out: IC50 with 1 mM bacitracin, 24 hour exposure, + 1 mM bacitracin (PDI inhibitor)
  pIC50: 9.82
HT1080 cells [1]; read-out: Standard IC50, 24 hour exposure (high MT1 expression), no block
  pIC50: 10.08
L540 cells; 72 hour exposure (low/no MT1 expression), no block, read-out: Standard IC50
  pIC50: 9.31
L540 cells; read-out: IC50 with 1 mM bacitracin, 72 hour exposure, + 1 mM bacitracin
  pIC50: 9.55
HT1080 cells [2]; 24 hours exposure, No block, 3 repeats
  pIC50: 10.22
HT1080 cells [2]; +250 μM binding peptide
  Maximum kill: 95%
  pIC50: 10.30
HT1080 cells [2]; +250 μM non-binding peptide
  Maximum kill: 95%
  pIC50: 10.30
HT1080 cells [2]; No block, compared to a lysis control
  Maximum kill: 95%

## CCc1c2c(nc3ccc(O)cc13)-c1cc3c(c(=O)n1C2)COC(=O)[C@]3(O)CC [SN38]
EBC-1; EBC-1, 72 hours
  Top inhibition%: 87%
EBC-1; Homo sapiens, EBC-1, 72 h
  pIC50: 8.63
HCC1806; HCC1806, 72 hours
  Top inhibition%: 96%
HCC1806; Homo sapiens, HCC1806, 72 h
  pIC50: 8.33
HCT15; HCT15, 72 hours
  Top inhibition%: 80%
HCT15; Homo sapiens, HCT-15, 72 h
  pIC50: 7.94
HT1080; HT1080, 72 hours
  Top inhibition%: 96%
HT1080; Homo sapiens, HT-1080, 72 h
  pIC50: 8.87
HT29; HT29, 72 hours
  Top inhibition%: 98%
HT29; Homo sapiens, HT-29, 72 h
  pIC50: 7.63
MDA-MB-231; Homo sapiens, MDA-MB-231, 72 h
  pIC50: 7.60
MDA-MB-231; MDA-MB-231, 72 hours
  Top inhibition%: 78%
MOLP-8; Homo sapiens, MOLP-8, 72 h
  pIC50: 8.44
MOLP-8; MOLP-8, 72 hours
  Top inhibition%: 88%
NCI-H1975; Homo sapiens, NCI-H1975, 72 h
  pIC50: 6.57
NCI-H1975; NCI-H1975, 72 hours
  Top inhibition%: 116%
NCI-H292; Homo sapiens, NCI-H292, 72 h
  pIC50: 8.46
NCI-H292; NCI-H292, 72 hours
  Top inhibition%: 92%
PC-3; Homo sapiens, PC-3, 72 h
  pIC50: 7.31
PC-3; PC-3, 72 hours
  Top inhibition%: 78%
SNU-16; Homo sapiens, SNU-16, 72 h
  pIC50: 8.67
SNU-16; SNU-16, 72 hours
  Top inhibition%: 76%
11 tumor cell lines
  pIC50: > 6.52
